Assay results published in PubChem BioAssay AID2060333 (Molecular Pharmacology Branch, DTP, NCI, 2025).

Tested on: 845751-090-R-J2-PDC tumor spheroid viability
Experiment: Anticancer human tumor 845751-090-R-J2-PDC patient-derived head and neck squamous carcinoma cell line growth inhibition [IpAb]
Settings: spheroids with HUVEC and MSC; for IC50: curve of first compound; for viability, T/C: stronger effect = lower value
Method in brief: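 Multi-cell spheroids of 60% tumour cells, 25% HUVEC and 15% MSC in ultra-low-attachment U-bottom wells, treated with agents combined with ipatasertib or abemaciclib. Half-log ranges top out near clinical Cmax, or 10 microM when Cmax is unknown.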

[1] = second compound 0.1 µM, first compound 0.0316 µM
[2] = second compound 0.1 µM, first compound 0.1 µM
[3] = second compound 0.1 µM, first compound 0.316 µM
[4] = second compound 0.1 µM, first compound 1 µM
[5] = second compound 0.316 µM, first compound 0.0316 µM
[6] = second compound 0.316 µM, first compound 0.1 µM
[7] = second compound 0.316 µM, first compound 0.316 µM
[8] = second compound 0.316 µM, first compound 1 µM
[9] = second compound 1 µM, first compound 0.0316 µM
[10] = second compound 1 µM, first compound 0.1 µM
[11] = second compound 1 µM, first compound 0.316 µM
[12] = second compound 1 µM, first compound 1 µM
[13] = second compound 3.16 µM, first compound 0.0316 µM
[14] = second compound 3.16 µM, first compound 0.1 µM
[15] = second compound 3.16 µM, first compound 0.316 µM
[16] = second compound 3.16 µM, first compound 1 µM
[17] = second compound 10 µM, first compound 0.0316 µM
[18] = second compound 10 µM, first compound 0.1 µM
[19] = second compound 10 µM, first compound 0.316 µM
[20] = second compound 10 µM, first compound 1 µM
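Also: spheroids exposed to compounds for 7 days before readout.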
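For viability, T/C in this document: CTG3D luminescence normalised so that 100% = DMSO vehicle control.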

Structure (SMILES)	IC50 (second compound 0.1 µM)	IC50 (second compound 0.316 µM)	IC50 (second compound 1 µM)	IC50 (second compound 3.16 µM)	IC50 (second compound 10 µM)	viability, T/C [1]	viability, T/C [2]	viability, T/C [3]	viability, T/C [4]	viability, T/C [5]	viability, T/C [6]	viability, T/C [7]	viability, T/C [8]	viability, T/C [9]	viability, T/C [10]	viability, T/C [11]	viability, T/C [12]	viability, T/C [13]	viability, T/C [14]	viability, T/C [15]	also measured
COc1c(OCCCN2CCOCC2)ccc2c3n(c(=NC(=O)c4cnc(N)nc4)nc12)CCN3 + CC(C)NCC(C(=O)N1CCN(c2ncnc3c2C(C)CC3O)CC1)c1ccc(Cl)cc1	7.18 nM	< 3.16 nM	< 3.16 nM	< 3.16 nM	< 3.16 nM	32.1%	19.5%	16.5%	3.52%	38.4%	17%	9.83%	5.73%	17.1%	9.67%	5.4%	2.49%	17.7%	7.76%	3.93%	viability, T/C (second compound 0.1 µM, first compound 0.00316 µM): 60.9%; viability, T/C (second compound 0.1 µM, first compound 0.01 µM): 46.1%; viability, T/C (second compound 0.316 µM, first compound 0.00316 µM): 26.4%; viability, T/C (second compound 0.316 µM, first compound 0.01 µM): 27.3%; viability, T/C (second compound 1 µM, first compound 0.00316 µM): 34.6%; viability, T/C (second compound 1 µM, first compound 0.01 µM): 21.8%; viability, T/C (second compound 3.16 µM, first compound 0.00316 µM): 22.5%; viability, T/C (second compound 3.16 µM, first compound 0.01 µM): 21.9%; viability, T/C [16]: 2.76%; viability, T/C (second compound 10 µM, first compound 0.00316 µM): 17.4%; viability, T/C (second compound 10 µM, first compound 0.01 µM): 17.7%; viability, T/C [17]: 13.4%; viability, T/C [18]: 5.23%; viability, T/C [19]: 2.57%; viability, T/C [20]: 1.62%
Cc1nc(NC(=O)N2CCCC2C(N)=O)sc1-c1ccnc(C(C)(C)C(F)(F)F)c1 (stereo not given) + CC(C)NCC(C(=O)N1CCN(c2ncnc3c2C(C)CC3O)CC1)c1ccc(Cl)cc1	108 nM	< 31.6 nM	< 31.6 nM	< 31.6 nM	< 31.6 nM	49.2%	54%	27.6%	19.2%	24.5%	30.9%	20.9%	15.6%	17.4%	21.7%	18%	13.8%	16%	15.8%	14.1%	viability, T/C (second compound 0.1 µM, first compound 3.16 µM): 15.5%; viability, T/C (second compound 0.1 µM, first compound 10 µM): 8.29%; viability, T/C (second compound 0.316 µM, first compound 3.16 µM): 13.1%; viability, T/C (second compound 0.316 µM, first compound 10 µM): 7.03%; viability, T/C (second compound 1 µM, first compound 3.16 µM): 10.6%; viability, T/C (second compound 1 µM, first compound 10 µM): 7.97%; viability, T/C [16]: 12.7%; viability, T/C (second compound 3.16 µM, first compound 3.16 µM): 9.92%; viability, T/C (second compound 3.16 µM, first compound 10 µM): 7.77%; viability, T/C [17]: 13.9%; viability, T/C [18]: 13.1%; viability, T/C [19]: 17.2%; viability, T/C [20]: 12%; viability, T/C (second compound 10 µM, first compound 3.16 µM): 9.58%; viability, T/C (second compound 10 µM, first compound 10 µM): 5.74%
